Test results published in the NIST ThermoML archive (doi:10.1021/je1012789).
± gives the expanded uncertainty stated by the source.

Test: mn = molality of the nth substance listed, in mol/kg
Conditions: 101 kPa, Liquid

[Br-].[K+] [potassium bromide] + O
Conditions | mass density [kg/m3] | speed of sound [m/s] | viscosity [mPa·s]
293.15 K, m1 = 0.2 | 1015.19 ± 0.3 | 1487 ± 1.6 | 0.985 ± 0.025
293.15 K, m1 = 0.3 | 1023.34 ± 0.32 | 1488.9 ± 1.6 | 0.975 ± 0.025
293.15 K, m1 = 0.4 | 1031.61 ± 0.33 | 1490.9 ± 1.6 | 0.97 ± 0.024
293.15 K, m1 = 0.5 | 1039.7 ± 0.35 | 1492.8 ± 1.6 | 0.97 ± 0.024
293.15 K, m1 = 0.6 | 1047.69 ± 0.36 | 1493.4 ± 1.6 | 0.95 ± 0.024
293.15 K, m1 = 0.7 | 1055.7 ± 0.38 | 1497.1 ± 1.6 | 0.936 ± 0.024
298.15 K, m1 = 0.2 | 1013.8 ± 0.3 | 1500.6 ± 1.6 | 0.873 ± 0.022
298.15 K, m1 = 0.3 | 1022.08 ± 0.32 | 1503.2 ± 1.6 | 0.863 ± 0.022
298.15 K, m1 = 0.4 | 1030.17 ± 0.33 | 1504 ± 1.6 | 0.86 ± 0.022
298.15 K, m1 = 0.5 | 1038.34 ± 0.34 | 1506.5 ± 1.6 | 0.857 ± 0.022
298.15 K, m1 = 0.6 | 1046.11 ± 0.36 | 1506 ± 1.6 | 0.846 ± 0.022
298.15 K, m1 = 0.7 | 1054.22 ± 0.37 | 1509.1 ± 1.6 | 0.832 ± 0.021
303.15 K, m1 = 0.2 | 1012.3 ± 0.3 | 1512.5 ± 1.6 | 0.782 ± 0.02
303.15 K, m1 = 0.3 | 1020.51 ± 0.31 | 1514.2 ± 1.6 | 0.772 ± 0.02
303.15 K, m1 = 0.4 | 1028.56 ± 0.33 | 1516 ± 1.6 | 0.769 ± 0.02
303.15 K, m1 = 0.5 | 1036.79 ± 0.34 | 1517.2 ± 1.6 | 0.765 ± 0.02
303.15 K, m1 = 0.6 | 1044.6 ± 0.35 | 1517.9 ± 1.6 | 0.76 ± 0.02
303.15 K, m1 = 0.7 | 1052.52 ± 0.37 | 1520.4 ± 1.6 | 0.74 ± 0.019
308.15 K, m1 = 0.2 | 1010.63 ± 0.3 | 1523.4 ± 1.6 | 0.698 ± 0.018
308.15 K, m1 = 0.3 | 1018.9 ± 0.31 | 1524.6 ± 1.6 | 0.688 ± 0.018
308.15 K, m1 = 0.4 | 1026.73 ± 0.32 | 1526.4 ± 1.6 | 0.682 ± 0.018
308.15 K, m1 = 0.5 | 1035 ± 0.34 | 1527.7 ± 1.6 | 0.678 ± 0.018
308.15 K, m1 = 0.6 | 1042.99 ± 0.35 | 1527.8 ± 1.6 | 0.674 ± 0.018
308.15 K, m1 = 0.7 | 1050.61 ± 0.36 | 1529.6 ± 1.6 | 0.664 ± 0.018
313.15 K, m1 = 0.2 | 1008.74 ± 0.29 | 1532.3 ± 1.6 | 0.622 ± 0.017
313.15 K, m1 = 0.3 | 1016.99 ± 0.31 | 1532.8 ± 1.6 | 0.612 ± 0.017
313.15 K, m1 = 0.4 | 1024.78 ± 0.32 | 1534.7 ± 1.6 | 0.608 ± 0.017
313.15 K, m1 = 0.5 | 1032.88 ± 0.33 | 1535.5 ± 1.6 | 0.605 ± 0.016
313.15 K, m1 = 0.6 | 1041.01 ± 0.35 | 1535.9 ± 1.6 | 0.602 ± 0.016
313.15 K, m1 = 0.7 | 1048.62 ± 0.36 | 1538.1 ± 1.6 | 0.595 ± 0.016

O=[N+]([O-])[O-].[K+] [potassium nitrate] + O
Conditions | mass density [kg/m3] | speed of sound [m/s] | viscosity [mPa·s]
293.15 K, m1 = 0.2 | 1010.62 ± 0.29 | 1490.7 ± 1.6 | 0.98 ± 0.025
293.15 K, m1 = 0.3 | 1016.69 ± 0.3 | 1493.5 ± 1.6 | 0.977 ± 0.025
293.15 K, m1 = 0.4 | 1022.68 ± 0.31 | 1497.4 ± 1.6 | 0.973 ± 0.024
293.15 K, m1 = 0.5 | 1028.6 ± 0.32 | 1501 ± 1.6 | 0.97 ± 0.024
293.15 K, m1 = 0.6 | 1034.61 ± 0.33 | 1504.4 ± 1.6 | 0.967 ± 0.024
293.15 K, m1 = 0.7 | 1040.37 ± 0.34 | 1507.6 ± 1.6 | 0.963 ± 0.024
298.15 K, m1 = 0.2 | 1009.41 ± 0.29 | 1504 ± 1.6 | 0.871 ± 0.022
298.15 K, m1 = 0.3 | 1015.47 ± 0.3 | 1507 ± 1.6 | 0.869 ± 0.022
298.15 K, m1 = 0.4 | 1021.25 ± 0.31 | 1510.1 ± 1.6 | 0.867 ± 0.022
298.15 K, m1 = 0.5 | 1027.13 ± 0.32 | 1513.4 ± 1.6 | 0.862 ± 0.022
298.15 K, m1 = 0.6 | 1032.84 ± 0.33 | 1517 ± 1.6 | 0.862 ± 0.022
298.15 K, m1 = 0.7 | 1038.56 ± 0.34 | 1520 ± 1.6 | 0.859 ± 0.022
303.15 K, m1 = 0.2 | 1007.8 ± 0.29 | 1515.6 ± 1.6 | 0.778 ± 0.02
303.15 K, m1 = 0.3 | 1013.82 ± 0.3 | 1518.7 ± 1.6 | 0.776 ± 0.02
303.15 K, m1 = 0.4 | 1019.62 ± 0.31 | 1522 ± 1.6 | 0.775 ± 0.02
303.15 K, m1 = 0.5 | 1025.4 ± 0.32 | 1524.7 ± 1.6 | 0.774 ± 0.02
303.15 K, m1 = 0.6 | 1031.2 ± 0.33 | 1528.4 ± 1.6 | 0.773 ± 0.02
303.15 K, m1 = 0.7 | 1036.79 ± 0.33 | 1530.9 ± 1.6 | 0.772 ± 0.02
308.15 K, m1 = 0.2 | 1006.09 ± 0.28 | 1526 ± 1.6 | 0.672 ± 0.018
308.15 K, m1 = 0.3 | 1011.97 ± 0.29 | 1528.8 ± 1.6 | 0.67 ± 0.018
308.15 K, m1 = 0.4 | 1017.79 ± 0.3 | 1531.4 ± 1.6 | 0.669 ± 0.018
308.15 K, m1 = 0.5 | 1023.58 ± 0.31 | 1534.3 ± 1.6 | 0.678 ± 0.018
308.15 K, m1 = 0.6 | 1029.21 ± 0.32 | 1536.8 ± 1.6 | 0.666 ± 0.018
308.15 K, m1 = 0.7 | 1034.87 ± 0.33 | 1539.4 ± 1.6 | 0.665 ± 0.018
313.15 K, m1 = 0.2 | 1004.28 ± 0.28 | 1534.6 ± 1.6 | 0.595 ± 0.016
313.15 K, m1 = 0.3 | 1009.98 ± 0.29 | 1537.5 ± 1.6 | 0.593 ± 0.016
313.15 K, m1 = 0.4 | 1015.89 ± 0.3 | 1539.7 ± 1.6 | 0.585 ± 0.016
313.15 K, m1 = 0.5 | 1021.56 ± 0.31 | 1542.5 ± 1.6 | 0.577 ± 0.016
313.15 K, m1 = 0.6 | 1027.23 ± 0.32 | 1544.8 ± 1.6 | 0.569 ± 0.016
313.15 K, m1 = 0.7 | 1032.76 ± 0.33 | 1547.7 ± 1.6 | 0.563 ± 0.016
